Assay results published in paper PMC6222329 (Molecules : A Journal of Synthetic Chemistry and Natural …, 2018).

Tests used:
Type in all cases: biochemical
[1] = biological target: T1, AChE (Electrophorus electricus) (Electrophorus electricus, UniProt O42275); experiment: AChE inhibition, Ellman's method
T1 construct: purchased Sigma-Aldrich (Steinheim, Germany)
Procedure: (§1) The assay was performed in two steps.
(§2) All enzymes were obtained from Sigma-Aldrich (Steinheim, Germany). Ellman’s reagent and the substrates were obtained from Fluka (Buchs, Switzerland). The chemicals used to prepare the buffer solution were purchased from Merck (Darmstadt, Germany).
(§3) The enzyme inhibitory activities of the synthesized compounds were investigated by applying Ellman’s method. Enzyme solutions were dissolved in gelatin solution (1%; 2.5 units/mL). […] Then, the reaction was initiated by the addition of Ellman’s reagent 5,5′-Dithiobis(2-nitrobenzoic acid) (DTNB; 20 µL/well, 10 mM) and the substrate (10 µL/well, 75 mM). […] The enzyme solution was processed as a control. All readings were adjusted with blank-reading. All assays were performed in four independent wells. […] Absorbance differences between the two readings were taken, and percentage inhibition rates were calculated according to the following formula: % Inhibition=[(A(C)−A(B))−(A(I)−A(B))]/(A(C)−A(B))×100.
(§4) • Blank (B): the well in which the inhibitor compound and substrate were not added; • Control (C): the well where the inhibitor compound was not added; • A(B): the difference in absorbance reading for the blank; • A(C): the difference in absorbance reading for the control; • A(I): the difference in absorbance reading for the inhibitor compounds.

AChE (Human) = biological target: T2, AChE (Human) (Homo sapiens, UniProt P22303); experiment: AChE inhibition, Ellman's method
T2 construct: purchased Sigma-Aldrich (Steinheim, Germany)
Procedure: as §1, §2, §3, §4

BChE (Human) = biological target: T3, BChE (Human) (Homo sapiens, UniProt P06276); experiment: BChE inhibition, Ellman's method
T3 construct: purchased Sigma-Aldrich (Steinheim, Germany)
Procedure: as §1, §2, §3, §4

BChE (Equine) = biological target: T4, BChE (Equine) (Equus caballus, UniProt P81908); experiment: biochemical
T4 construct: purchased Sigma-Aldrich (Steinheim, Germany)
Procedure: as §1, §2, §3, §4

[2] = read-out: BChE (Equine) inhibitory activity (%) ± SD

T4 sequence (P81908 whole entry): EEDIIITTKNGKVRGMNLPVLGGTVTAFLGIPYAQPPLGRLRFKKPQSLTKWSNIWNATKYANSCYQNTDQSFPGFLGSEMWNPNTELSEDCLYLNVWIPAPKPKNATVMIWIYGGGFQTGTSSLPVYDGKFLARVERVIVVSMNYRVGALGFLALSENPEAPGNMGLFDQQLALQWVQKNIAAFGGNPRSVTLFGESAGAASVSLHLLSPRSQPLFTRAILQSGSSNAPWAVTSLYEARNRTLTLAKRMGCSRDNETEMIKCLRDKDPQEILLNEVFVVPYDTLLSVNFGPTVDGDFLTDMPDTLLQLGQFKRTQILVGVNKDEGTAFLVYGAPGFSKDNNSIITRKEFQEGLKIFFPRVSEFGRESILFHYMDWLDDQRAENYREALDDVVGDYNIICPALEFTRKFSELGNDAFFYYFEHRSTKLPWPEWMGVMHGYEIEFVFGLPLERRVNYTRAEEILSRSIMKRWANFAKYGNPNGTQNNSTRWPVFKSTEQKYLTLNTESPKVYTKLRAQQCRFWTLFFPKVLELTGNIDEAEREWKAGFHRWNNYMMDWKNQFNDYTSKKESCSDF
T3 sequence (P06276 29-602): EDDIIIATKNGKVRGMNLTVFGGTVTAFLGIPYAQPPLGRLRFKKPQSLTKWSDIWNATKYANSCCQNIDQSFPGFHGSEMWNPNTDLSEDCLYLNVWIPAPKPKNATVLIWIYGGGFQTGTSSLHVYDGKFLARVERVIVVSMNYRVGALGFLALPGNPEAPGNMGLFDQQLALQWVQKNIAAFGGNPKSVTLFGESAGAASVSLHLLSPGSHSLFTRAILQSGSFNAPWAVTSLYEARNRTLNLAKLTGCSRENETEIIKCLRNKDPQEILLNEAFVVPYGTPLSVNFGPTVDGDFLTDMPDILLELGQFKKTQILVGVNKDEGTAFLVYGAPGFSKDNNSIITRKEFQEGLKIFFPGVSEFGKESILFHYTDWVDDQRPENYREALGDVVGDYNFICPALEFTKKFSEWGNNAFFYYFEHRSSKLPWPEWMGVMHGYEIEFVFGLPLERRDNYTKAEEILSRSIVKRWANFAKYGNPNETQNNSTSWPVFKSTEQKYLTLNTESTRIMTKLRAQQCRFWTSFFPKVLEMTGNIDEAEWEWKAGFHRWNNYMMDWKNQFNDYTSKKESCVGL
T1 sequence (O42275 24-633): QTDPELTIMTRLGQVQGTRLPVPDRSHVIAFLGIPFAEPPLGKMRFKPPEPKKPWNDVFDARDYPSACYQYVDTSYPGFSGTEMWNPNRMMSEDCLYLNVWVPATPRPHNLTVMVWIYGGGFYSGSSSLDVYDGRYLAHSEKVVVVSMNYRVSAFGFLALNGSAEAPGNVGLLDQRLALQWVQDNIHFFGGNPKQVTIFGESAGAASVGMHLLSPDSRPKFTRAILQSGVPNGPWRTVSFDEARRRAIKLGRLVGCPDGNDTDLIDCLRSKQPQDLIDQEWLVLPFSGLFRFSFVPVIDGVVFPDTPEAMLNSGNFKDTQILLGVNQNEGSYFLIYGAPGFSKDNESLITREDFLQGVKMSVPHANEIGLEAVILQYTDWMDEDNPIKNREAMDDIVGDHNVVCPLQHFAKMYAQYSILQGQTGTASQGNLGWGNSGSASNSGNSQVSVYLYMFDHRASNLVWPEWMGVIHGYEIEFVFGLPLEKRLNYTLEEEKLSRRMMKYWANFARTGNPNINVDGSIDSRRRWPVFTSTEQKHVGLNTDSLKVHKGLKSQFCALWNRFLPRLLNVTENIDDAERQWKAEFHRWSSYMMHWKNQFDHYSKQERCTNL
T2 sequence (P22303 32-614): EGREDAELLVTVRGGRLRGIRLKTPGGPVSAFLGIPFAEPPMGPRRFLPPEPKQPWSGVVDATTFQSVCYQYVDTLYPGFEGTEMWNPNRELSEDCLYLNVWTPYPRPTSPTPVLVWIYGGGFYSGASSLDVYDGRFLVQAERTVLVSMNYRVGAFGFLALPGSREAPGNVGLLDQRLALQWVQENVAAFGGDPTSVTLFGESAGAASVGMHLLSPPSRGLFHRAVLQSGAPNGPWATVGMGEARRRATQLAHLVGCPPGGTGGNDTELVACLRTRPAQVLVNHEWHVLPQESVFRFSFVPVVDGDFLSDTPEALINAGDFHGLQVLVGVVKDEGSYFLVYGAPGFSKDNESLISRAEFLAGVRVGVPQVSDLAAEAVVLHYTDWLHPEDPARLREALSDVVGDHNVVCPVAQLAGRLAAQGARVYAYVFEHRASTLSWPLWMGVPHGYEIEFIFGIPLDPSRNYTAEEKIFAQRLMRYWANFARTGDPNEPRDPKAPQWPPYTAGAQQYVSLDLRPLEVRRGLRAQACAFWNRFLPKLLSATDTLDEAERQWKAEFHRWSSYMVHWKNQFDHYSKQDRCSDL

Compound | AChE (Electrophorus electricus) inhibitory activity (%) ± SD ([1]; 10^-3 M) [%] | AChE (Electrophorus electricus) inhibitory activity (%) ± SD ([1]; 10^-4 M) [%] | AChE (Human) inhibitory activity (%) ± SD (AChE (Human); 10^-3 M) [%] | AChE (Human) inhibitory activity (%) ± SD (AChE (Human); 10^-4 M) [%] | BChE (Human) inhibitory activity (%) ± SD (BChE (Human); 10^-3 M) [%] | BChE (Human) inhibitory activity (%) ± SD (BChE (Human); 10^-4 M) [%] | BChE (Equine) inhibitory activity (%) ± SD (BChE (Equine); 10^-3 M) [%] | BChE (Equine) inhibitory activity (%) ± SD (BChE (Equine); 10^-4 M) [%] | inhibition at 1000 µM (BChE (Human); 10^-3 M, read-out: BChE (Human) inhibitory activity (%) ± SD) [%] | inhibition at 100 µM (BChE (Human); 10^-4 M, read-out: BChE (Human) inhibitory activity (%) ± SD) [%] | inhibition at 10 µM (BChE (Human); 10^-5 M, read-out: BChE (Human) inhibitory activity (%) ± SD) [%] | inhibition at 1 µM (BChE (Human); 10^-6 M, read-out: BChE (Human) inhibitory activity (%) ± SD) [%] | inhibition at 0.1 µM (BChE (Human); 10^-7 M, read-out: BChE (Human) inhibitory activity (%) ± SD) [%] | inhibition at 0.001 µM (BChE (Equine); [2]) [%] | inhibition at 0.01 µM (BChE (Equine); [2]) [%] | inhibition at 0.1 µM (BChE (Equine); [2]) [%] | inhibition at 1 µM (BChE (Equine); [2]) [%] | inhibition at 10 µM (BChE (Equine); [2]) [%] | inhibition at 100 µM (BChE (Equine); [2]) [%] | inhibition at 1000 µM (BChE (Equine); [2]) [%]
O=C(CSC(=S)N1CCN(c2ncccn2)CC1)Nc1c2ccccc2nc2ccccc12 [Compound 4j, 2-(9-Acridinylamino)-2-oxoethyl 4-(pyrimidin-2-yl)piperazine-1-carbodithioate] | 69.08±1.67 | 2.88 ± 0.18 | 66.71±1.06 | 5.97 ± 0.22 | 90.51±2.18 | 30.77 ± 1.20 | 92.87±2.84 | 27.86 ± 1.07 |  |  |  |  |  |  |  |  |  |  |  | 
O=C(CSC(=S)N1CCN(Cc2ccccc2)CC1)Nc1c2ccccc2nc2ccccc12 [Compound 4k, 2-(9-Acridinylamino)-2-oxoethyl 4-benzylpiperazine-1-carbodithioate] | 58.74±1.69 | 8.62 ± 0.22 | 59.17±1.11 | 7.21 ± 0.18 | 70.98±2.39 | 20.65 ± 1.20 | 74.62±2.75 | 25.14 ± 1.42 |  |  |  |  |  |  |  |  |  |  |  | 
O=C(CSC(=S)N1CCN(C2CCCCC2)CC1)Nc1c2ccccc2nc2ccccc12 [Compound 4l, 2-(9-Acridin-ylamino)-2-oxoethyl 4-cyclohexylpiperazine-1-carbodithioate] | 56.11±2.46 | 3.90 ± 0.09 | 58.33±1.39 | 7.29 ± 0.18 | 85.71±2.40 | 42.60 ± 1.53 | 84.88±3.34 | 45.88 ± 1.62 |  |  |  |  |  |  |  |  |  |  |  | 
O=C(CSC(=S)N1CCN(c2ccc(F)cc2)CC1)Nc1c2ccccc2nc2ccccc12 [Compound 4p, 2-(9-Acridinylamino)-2-oxoethyl 4-(4-fluorophenyl)piperazine-1-carbodithioate] | 98.66±2.98 | 48.40 ± 1.18 | 96.90±2.17 | 49.51 ± 1.50 | 92.55±2.51 | 40.71 ± 1.08 | 93.27±3.07 | 48.65 ± 1.14 |  |  |  |  |  |  |  |  |  |  |  | 
O=C(CSC(=S)N1CCN(C(=O)c2ccco2)CC1)Nc1c2ccccc2nc2ccccc12 [Compound 4q, 2-(9-Acridinylamino)-2-oxoethyl 4-(furan-2-carbonyl)piperazine-1-carbodithioate] | 68.60±1.57 | 16.35 ± 0.39 | 70.29±1.18 | 20.28 ± 0.51 | 95.29±2.16 | 42.48 ± 1.22 | 92.00±3.44 | 39.90 ± 1.36 |  |  |  |  |  |  |  |  |  |  |  | 
COc1cc2c(cc1OC)C(=O)C(CC1CCN(Cc3ccccc3)CC1)C2 (stereo not shown) [Donepezil, reference compound] |  |  |  |  |  |  |  |  | 85.2 ± 2.01 | 76.5 ± 2.08 | 60.2 ± 1.37 | 52.5 ± 1.05 | 32.7 ± 0.95 | 9.23 ± 0.08 | 15.3 ± 0.61 | 38.1 ± 0.89 | 54.3 ± 1.16 | 59.2 ± 1.54 | 71.7 ± 2.16 | 82.2 ± 2.91
